From patent US12042560B2, “Liposome composition” (Eisai R&D Management Co., Ltd., priority 2009, dated 2024)
Where a name gives a salt, the structure may show the parent alone.

Columns and labels:
[1] = test system: FaDu human pharyngeal squamous cell carcinoma line; experiment: In vivo antitumor activity in FaDu cancer-bearing nude mice; details: free bodies, 4 mg/kg, caudal vein, 3 times in 7-day intervals, FIG. 2
Experimental: (§1) FaDu (obtained from the American Type Culture Collection), which is a human pharyngeal squamous cell carcinoma line, was cultured and grown in a 10% bovine fetal serum-containing MEM culture. The cells were separated from the flask using 0.05% Trypsin-EDTA solution and collected. After washing with PBS, the cells were suspended in PBS so as to be 5×10^7 cells/mL and kept on ice. 0.1 mL of cell suspension liquid were subcutaneously injected in the right ventral portion of 6-week old nude mice (Charles River Laboratories Japan, Inc.). Each mouse was observed daily, and notes were made appropriately in cases where abnormal conditions were found. Calipers were used to measure the tumor size over time, and the tumor size was calculated based on the calculation formula: major axis×(minor axis squared)÷2. At the point when the tumor size was 100 to 200 mm^3, the mice were separated into groups such that the average values of the tumor sizes and the mouse body weights were uniform among the test groups (five mice per test group), and the drug was administered into the caudal vein (0.2 mL/20 g; 3 times in 7-day intervals).

[2] = test system: ACHN human renal cancer cell line; experiment: In vivo antitumor activity in ACHN cancer-bearing nude mice; details: free body, 2 mg/kg, 3 mg/kg and 4 mg/kg, 45 days after the start of sample administration, FIG. 3
Experimental: ACHN (obtained from the American Type Culture Collection), which is a human renal cancer cell line, was cultured and grown in a 10% bovine fetal serum-containing MEM culture. The cells were separated from the flask using 0.05% Trypsin-EDTA solution and collected. After washing with PBS, the cells were suspended in PBS so as to be 5×10^7 cells/mL and then kept on ice. 0.1 mL of cell suspension liquid were subcutaneously injected in the right ventral portion of 6-week old nude mice (Charles River Laboratories Japan, Inc.). Each mouse was observed daily, and notes made appropriately in cases where abnormal conditions were found. Calipers were used to measure the tumor size over time, and the tumor size was calculated based on the calculation formula: major axis×(minor axis squared)÷2. At the point when the tumor size was 150 to 200 mm^3, the mice were separated into groups such that the average values of the tumor sizes and the body weights of mice were uniform among the test groups (five mice per test group), and the drug was administered into the caudal vein (0.2 mL/20 g; 3 times in 7-day intervals).

[3] = Maximum tolerated dose in nude mice; details: mouse, in vivo, intravenous, free bodies
Experimental: as §1, with “At the point when the tumor size was 100 to 200 mm^3, the mice were separated into groups such that the average values of the tumor sizes and the mouse body weights were uniform among the test groups (five mice per test group), and the drug was administered into the caudal vein (0.2 mL/20 g; 3 times in 7-day intervals).” left out
ACHN (obtained from the American Type Culture Collection), which is a human renal cancer cell line, was cultured and grown in a 10% bovine fetal serum-containing MEM culture. […] Calipers were used to measure the tumor size over time, and the tumor size was calculated based on the calculation formula: major axis×(minor axis squared)÷2. […]

C=C1C[C@@H]2CC[C@@]34C[C@H]5O[C@H]6[C@@H](O3)[C@H]3O[C@H](CC[C@@H]3O[C@H]6[C@H]5O4)CC(=O)C[C@@H]3[C@@H](OC)[C@@H](C[C@H](O)CN)O[C@H]3C[C@H]3O[C@@H](CC[C@@H]1O2)C[C@@H](C)C3=C [Eribulin mesylate, eribulin mesylate]
Tumor-reducing effect (average tumor volume) [1]: a tumor-reducing effect was not obtained
Tumor volume versus non-treated group [2]: no significant difference was found
MTD [3]: 4 mg/kg
